Results as given in PubChem BioAssay AID1645864 (Buhrlage Lab, Dana-Farber Cancer Institute and Novartis …, 2021).
pIC50: −log10 of the molar value. Calls of active or inactive are those of the source.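 The calls were made as follows: active = maximal inhibition of USP17 at or above 30% in the confirmation dose-response, a value not among the printed readouts; inactive = the rest.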

Each compound was assayed against Ubiquitin carboxyl-terminal hydrolase 17-like protein 5 (Homo sapiens) (UniProt A8MUK1) (assay: ubiquitin-specific protease 17 inhibitors, concentration series, biochemical, verification of primary actives (AID 1645864)). Settings: purified USP17, ubiquitin-rhodamine cleavage fluorescence, 3 h.
Ubiquitin carboxyl-terminal hydrolase 17-like protein 5 (Homo sapiens), sequence (A8MUK1 whole entry, looked up): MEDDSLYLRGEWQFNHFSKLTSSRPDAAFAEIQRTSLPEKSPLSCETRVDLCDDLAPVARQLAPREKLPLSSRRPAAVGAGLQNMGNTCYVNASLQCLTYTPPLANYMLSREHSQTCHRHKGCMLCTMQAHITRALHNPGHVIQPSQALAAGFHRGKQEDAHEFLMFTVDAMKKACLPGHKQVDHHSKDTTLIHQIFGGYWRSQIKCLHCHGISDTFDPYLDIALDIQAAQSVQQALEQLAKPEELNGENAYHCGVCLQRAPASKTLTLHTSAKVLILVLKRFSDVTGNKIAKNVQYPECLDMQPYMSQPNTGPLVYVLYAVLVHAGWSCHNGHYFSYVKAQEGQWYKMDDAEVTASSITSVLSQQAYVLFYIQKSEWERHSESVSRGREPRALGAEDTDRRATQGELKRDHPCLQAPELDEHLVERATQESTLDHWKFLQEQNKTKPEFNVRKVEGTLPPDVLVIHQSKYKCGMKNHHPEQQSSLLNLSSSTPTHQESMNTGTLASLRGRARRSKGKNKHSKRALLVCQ
In the case of `O=C(COc1ccc(F)cc1)Nc1cnc(-c2ccc(Cl)cc2)nc1`, the pIC50 was 4.62. `Cc1nnc(Sc2cc(C(=O)NCCN3CCCC3)c3ccccc3n2)s1` was tested, and the pIC50 was 4.52. For `COC(=O)c1ccc2c(=O)n(CCCCCC(=O)NCCc3ccc(S(N)(=O)=O)cc3)c(=O)[nH]c2c1`, the pIC50 was 5.29. In the case of `O=C(NCc1ccc2c(c1)OCO2)c1nn(C23CC4CC(CC(C4)C2)C3)cc1[N+](=O)[O-]`, the IC50 was > 50 µM (inactive). For `CC1=C(Cn2c3cccc(=O)c-3nc3ccccc32)CCC(C)(C)C1`, the pIC50 was 5.82. With `O=C(NCc1nc2ccccc2[nH]1)c1cccc(S(=O)(=O)N2CCc3ccccc32)c1` the IC50 was > 50 µM (inactive). `COc1ccc(-c2cc(-c3ccc(O)cc3)nc(N)c2C#N)cc1OC` was tested, and the IC50 was > 50 µM (inactive). For `COc1cc(Cl)ccc1Oc1ncnc2sc(C)c(C)c12`, the IC50 was > 50 µM (inactive). `COc1ccc(NC(=O)Nc2cccc(-c3nnc(-c4ccccc4)o3)c2)cc1OC` was tested, and the pIC50 was 4.96. Work on `COc1cccc(N2CCN(C(=O)Nc3ccc4c(c3)NC(=O)CO4)CC2)c1` yielded a pIC50 of 4.57. `O=C(Cn1cnc2c(cnn2-c2ccc(Cl)cc2)c1=O)NCc1ccccc1Cl` gave a pIC50 of 5.46. In the case of `Cc1noc(NS(=O)(=O)c2ccc(NC(=O)CSc3ccc4ccccc4c3)cc2)c1C`, the IC50 was > 50 µM (inactive). `COC(=O)COc1ccc(/C=N/NC(=O)c2ccc(CN3CCc4ccccc4C3)cc2)cc1` was tested, and the pIC50 was 4.84. In the case of `O=C(CN1CCCc2ccccc21)Nc1ccc(N2CCOCC2)cc1`, the IC50 was > 50 µM (inactive). For `Cc1cn[nH]c1C1COCCN1C(=O)c1ccc2ncccc2c1` (stereo unspecified), the IC50 was > 50 µM (inactive). For `CC(CCc1ccccc1)NC(=O)C(=O)c1cn(CC(=O)N2CCOCC2)c2ccccc12` (stereo unspecified), the IC50 was > 50 µM (inactive). For `COc1ccc(C(C)=O)cc1CC(=O)Nc1nc2ccccc2[nH]1`, the IC50 was > 50 µM (inactive). In the case of `O=C(Nc1ccc(Oc2cccc3cccnc23)cc1)c1cccs1`, the IC50 was > 50 µM (inactive). `CCOc1ccc(CC(=O)Nc2ccc(-c3cn4cccnc4n3)cc2)cc1` showed a pIC50 of 4.50. Work on `N#Cc1cccc(S(=O)(=O)N2CCc3nc4ccccc4n3CC2)c1` yielded a pIC50 of 4.71. In the case of `CCOc1ccc2c(c1)c(=O)c(C(=O)c1ccc(C)cc1)cn2CC(=O)Nc1ccc(OC)c(OC)c1`, the pIC50 was 6.33. `Cc1cc(C)nc(-n2nc(C)c3c2NC(=O)CSC3c2ccccc2F)n1` (stereo unspecified) showed a pIC50 of 4.37. With `COc1ccc(Cn2c(SCc3ccc(C(=O)NCCc4ccccc4)cc3)nc3ccncc32)cc1` the IC50 was > 50 µM (inactive). `Cc1nc(-c2ccccc2F)sc1C(=O)Nc1cccnc1` was tested, and the pIC50 was 4.45. In the case of `COc1ccc2ncc3c(-c4ccc(C)cc4)nn(-c4ccc(F)cc4)c3c2c1`, the pIC50 was 5.45. `CCOc1ccccc1NC(=O)Cn1c(=O)n(CCCC(=O)NCc2ccc(C)cc2)c(=O)c2sccc21` was tested, and the pIC50 was 5.57. With `CN1CC2CN(C(=O)c3ccc(F)cc3)CCN2Cc2ccccc21` (stereo unspecified) the IC50 was > 50 µM (inactive). `Cc1ccc(NC(=O)c2sc3ncn(CC(=O)N4CCN(c5ccccn5)CC4)c(=O)c3c2C)c(Br)c1` was tested, and the pIC50 was 4.45. With `CC(C)OC(=O)c1cc2c(ccn2C)n1CC(=O)N1CCN(C(=O)c2ccco2)CC1` the IC50 was > 50 µM (inactive). For `CCc1nnc(NC(=O)c2nnn(-c3ccccc3Cl)c2C)s1`, the IC50 was > 50 µM (inactive). Work on `Cc1ccc(C)c(Cn2nnc3c(=O)[nH]c(C4CCN(S(=O)(=O)c5ccc(S(=O)(=O)NC6CC6)cc5)CC4)nc32)c1` yielded a pIC50 of 4.61. In the case of `O=c1c(NCCCN2CCCC2)nc2ccncc2n1Cc1ccccc1`, the pIC50 was 4.53. Work on `Cc1ccc(-n2c(=O)[nH]c3c(C(N)=O)nc(-c4cccnc4)nc32)cc1` yielded a pIC50 of 5.36. `Nc1nc(-c2ccc[nH]2)cs1` was tested, and the IC50 was > 50 µM (inactive). For `COc1ccc(-c2cc(C(F)F)n3ncc(C(=O)Nc4ccc5c(c4)OCCO5)c3n2)cc1`, the IC50 was > 50 µM (inactive). `CCCc1cc(=O)oc2cc(OCC(=O)NCc3ccc(OC)cc3)ccc12` showed a pIC50 of 5.03. For `CC1CC(=O)N(Cc2ccc([N+](=O)[O-])cc2)c2ccccc2S1` (stereo unspecified), the IC50 was > 50 µM (inactive). Compound `COc1ccc(CN(C(=O)c2cc(-c3ccc(C)cc3)on2)C2CCS(=O)(=O)C2)cc1` (stereo unspecified) has a pIC50 of 4.76. In the case of `Cc1c(C)c2ccc(OCC(=O)NCc3ccncc3)c(C)c2oc1=O`, the pIC50 was 4.38. In the case of `Cc1ccc(CN2CCCn3nc(C(=O)NCc4ccccc4C)cc3C2=O)cc1`, the pIC50 was 4.40. `CC(C)CC(=O)Nc1cc(F)c2nc(N3CCOCC3)ccc2c1` was tested, and the pIC50 was 5.23. With `O=C(NC1(O)C(=O)c2ccccc2C1=O)c1ccc(-c2csnn2)cc1` the pIC50 was 4.71. In the case of `Cc1c(-c2ccccc2)oc2c(C(=O)OCC(=O)Nc3ccccc3F)cccc2c1=O`, the IC50 was > 50 µM (inactive). In the case of `O=C(Nc1ccc2c(c1)OCO2)C1CCN(Cc2nc3ccccc3s2)CC1`, the IC50 was > 50 µM (inactive). With `CCCC(=O)Nc1ccc(SCc2nnc(-c3ccccc3)o2)cc1` the IC50 was > 50 µM (inactive). In the case of `COc1ccccc1CNC(=O)C1CCCN(c2nc3ccsc3c(=O)s2)C1` (stereo unspecified), the pIC50 was 5.38. `Cc1nc(SCC#N)c2oc3ccccc3c2n1` gave a pIC50 of 4.36. With `Cc1cc(C)n(-c2ccc(C(=O)Nc3cccc(S(=O)(=O)N4CCCC4)c3)cc2)n1` the pIC50 was 4.64. In the case of `O=C1C/C(=C\c2cccc(Cl)c2)Cc2ccccc21`, the IC50 was > 50 µM (inactive). With `CN1c2ccccc2CN(CC(N)=O)CC1Cc1ccccc1` (stereo unspecified) the IC50 was > 50 µM (inactive). `O=C(COC(=O)c1cc2c(s1)CCC2)c1ccc2[nH]c(=O)[nH]c2c1` showed a pIC50 of 4.80.
